Experimental findings from BindingDB's records for doi:10.1111/cbdd.12596 (Nanjing University, 2015) are described below.

Common to all, as to experiment: VEGFR2 Kinase Assay
Common to all, as to conditions: pH 7.2; 25 °C

Assay [1] has as its target Vascular endothelial growth factor receptor 2 (Homo sapiens, UniProt P35968). On the procedure: VEGFR kinase assays were set up to assess the level of autophosphorylation based on DELFIA/Time-Resolved Fluorometry. 96-well plates were coated at room temperature for 1-2 h with 100 μL per well of 25 μg mL−1 poly-(Glu4-Tyr) peptide (Sigma) in Tris-buffered saline (TBS) (25 mM Tris, pH 7.2, 150 mM NaCl). Unbound peptide was washed three times with PBS. The cytoplasmic domain of VEGFR-2 enzyme was diluted (depending on the specific activity of the batch, from 10- to 20-fold) in 0.1% BSA/4 mM HEPES. […] Controls were done by adding DMSO alone, i.e., no test compound, to wells containing the master mix of enzyme plus kinase buffer. After 15 min at room temperature, ATP/MgCl2 (20 μL of

Assay [2] concerns the target Fibroblast growth factor 2 (Homo sapiens, UniProt P09038).
Assay [3] addresses Epidermal growth factor receptor (Homo sapiens, UniProt P00533).

Epidermal growth factor receptor, sequence (P00533 whole entry): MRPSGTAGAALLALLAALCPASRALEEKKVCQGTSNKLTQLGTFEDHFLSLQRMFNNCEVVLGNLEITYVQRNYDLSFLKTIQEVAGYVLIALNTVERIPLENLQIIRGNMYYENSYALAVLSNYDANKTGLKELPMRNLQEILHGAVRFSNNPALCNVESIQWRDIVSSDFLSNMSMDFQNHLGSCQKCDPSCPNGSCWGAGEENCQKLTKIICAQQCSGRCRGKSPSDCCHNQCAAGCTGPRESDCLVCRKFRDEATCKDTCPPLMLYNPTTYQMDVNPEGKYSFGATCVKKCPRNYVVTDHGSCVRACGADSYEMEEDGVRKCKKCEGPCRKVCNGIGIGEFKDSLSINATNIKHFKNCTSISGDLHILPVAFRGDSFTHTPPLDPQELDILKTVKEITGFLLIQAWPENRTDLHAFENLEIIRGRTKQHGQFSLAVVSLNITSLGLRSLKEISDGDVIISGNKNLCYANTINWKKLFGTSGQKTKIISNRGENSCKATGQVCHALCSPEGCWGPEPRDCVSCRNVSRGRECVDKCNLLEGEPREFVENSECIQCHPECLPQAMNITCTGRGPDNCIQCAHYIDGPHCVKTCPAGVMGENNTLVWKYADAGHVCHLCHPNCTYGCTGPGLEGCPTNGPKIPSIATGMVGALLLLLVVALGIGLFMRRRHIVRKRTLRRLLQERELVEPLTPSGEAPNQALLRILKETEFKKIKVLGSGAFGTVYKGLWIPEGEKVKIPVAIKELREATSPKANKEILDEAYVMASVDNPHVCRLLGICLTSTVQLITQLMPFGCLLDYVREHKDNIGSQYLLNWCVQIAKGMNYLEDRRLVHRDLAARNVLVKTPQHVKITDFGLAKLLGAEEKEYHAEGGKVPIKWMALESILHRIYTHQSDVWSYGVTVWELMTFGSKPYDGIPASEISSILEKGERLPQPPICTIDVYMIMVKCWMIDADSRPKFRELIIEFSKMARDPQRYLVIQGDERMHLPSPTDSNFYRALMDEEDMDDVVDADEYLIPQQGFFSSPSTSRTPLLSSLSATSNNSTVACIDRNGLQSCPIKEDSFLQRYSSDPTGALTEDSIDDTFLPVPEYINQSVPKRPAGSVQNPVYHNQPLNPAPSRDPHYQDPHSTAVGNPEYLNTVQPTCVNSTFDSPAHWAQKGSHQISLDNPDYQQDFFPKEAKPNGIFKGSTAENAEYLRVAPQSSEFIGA
Vascular endothelial growth factor receptor 2, sequence (P35968 whole entry, the tested form may be a part): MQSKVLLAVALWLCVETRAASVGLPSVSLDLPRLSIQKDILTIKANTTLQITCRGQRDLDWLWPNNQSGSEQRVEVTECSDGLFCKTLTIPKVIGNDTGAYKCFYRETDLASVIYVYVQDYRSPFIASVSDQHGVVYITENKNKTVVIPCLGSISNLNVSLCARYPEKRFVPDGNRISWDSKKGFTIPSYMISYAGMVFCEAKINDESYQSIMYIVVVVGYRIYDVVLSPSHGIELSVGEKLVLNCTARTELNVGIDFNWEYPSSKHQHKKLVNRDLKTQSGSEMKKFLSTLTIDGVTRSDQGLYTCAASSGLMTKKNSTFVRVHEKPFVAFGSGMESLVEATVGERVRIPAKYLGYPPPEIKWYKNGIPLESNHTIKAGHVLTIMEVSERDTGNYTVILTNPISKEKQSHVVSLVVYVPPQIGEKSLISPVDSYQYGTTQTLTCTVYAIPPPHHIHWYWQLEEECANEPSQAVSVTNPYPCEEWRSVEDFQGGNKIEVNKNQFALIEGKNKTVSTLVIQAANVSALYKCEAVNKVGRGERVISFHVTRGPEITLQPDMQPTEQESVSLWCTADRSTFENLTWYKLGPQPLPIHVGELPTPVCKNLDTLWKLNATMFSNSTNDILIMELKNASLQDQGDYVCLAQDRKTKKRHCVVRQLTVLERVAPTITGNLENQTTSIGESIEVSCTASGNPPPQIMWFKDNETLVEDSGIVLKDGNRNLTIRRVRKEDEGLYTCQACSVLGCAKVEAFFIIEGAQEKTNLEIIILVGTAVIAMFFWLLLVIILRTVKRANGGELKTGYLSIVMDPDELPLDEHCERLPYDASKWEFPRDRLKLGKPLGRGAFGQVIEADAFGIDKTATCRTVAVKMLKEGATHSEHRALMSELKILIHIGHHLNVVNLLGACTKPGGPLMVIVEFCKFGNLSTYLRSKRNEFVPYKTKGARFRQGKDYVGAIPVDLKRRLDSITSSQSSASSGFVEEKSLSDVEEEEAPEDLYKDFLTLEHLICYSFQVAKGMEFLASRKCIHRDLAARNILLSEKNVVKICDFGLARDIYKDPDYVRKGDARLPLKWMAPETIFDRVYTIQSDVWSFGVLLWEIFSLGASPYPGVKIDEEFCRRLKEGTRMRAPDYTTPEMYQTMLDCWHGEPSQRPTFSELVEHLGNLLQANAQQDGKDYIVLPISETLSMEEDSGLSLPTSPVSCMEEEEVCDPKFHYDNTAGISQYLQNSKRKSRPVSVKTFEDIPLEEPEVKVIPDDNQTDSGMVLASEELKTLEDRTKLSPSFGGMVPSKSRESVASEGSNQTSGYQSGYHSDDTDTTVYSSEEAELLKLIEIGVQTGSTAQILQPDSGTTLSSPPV

The IC50 is the concentration that gives 50% inhibition. Take `OC(COc1ncnc2ccccc12)CN1CCN(c2ccc(F)cc2)CC1` (configuration not stated) [1-(4-(4-Fluorophenyl)piperazin-1-yl)-3-(quinazolin-4-yloxy)propan-2-ol (3e)]: the IC50 in assay [1] stood at 21.8 nM; in assay [2] it was 300 nM; in assay [3], 403 nM.
Consider `O=[N+]([O-])c1ccc(N2CCN(CC(O)COc3ncnc4ccccc34)CC2)cc1` (configuration not stated) [1-(4-(4-Nitrophenyl)piperazin-1-yl)-3-(quinazolin-4-yloxy)propan-2-ol (3f)], for which the IC50 came out at 16.5 nM in assay [1], 248 nM in assay [2] and 382 nM in assay [3].
For `OC(COc1ncnc2ccccc12)CN1CCN(c2ccccc2F)CC1` (configuration not stated) [1-(4-(2-Fluorophenyl)piperazin-1-yl)-3-(quinazolin-4-yloxy)propan-2-ol (3d)], in that order: 34.7 nM, 372 nM and 409 nM.
Compound `COc1cc2nccc(Oc3ccc(NC(=O)Nc4cc(C)on4)c(Cl)c3)c2cc1OC` [Tivozanib] registered an IC50 in assay [2] of 114 nM.
As to `OC(COc1ncnc2ccccc12)CN1CCN(c2ccc(Cl)c(Cl)c2)CC1` (configuration not stated) [1-(4-(3,4-Dichlorophenyl)piperazin-1-yl)-3-(quinazolin-4-yloxy)propan-2-ol (3l)], the IC50 was 8.42 nM in assay [1], 178 nM in assay [2] and 344 nM in assay [3].
For `OC(COc1ncnc2ccccc12)CN1CCN(c2ccccc2Cl)CC1` (configuration not stated) [1-(4-(2-Chlorophenyl)piperazin-1-yl)-3-(quinazolin-4-yloxy)propan-2-ol (3b)], in that order: 49.8 nM, 506 nM and 418 nM.
Consider `COc1ccc(N2CCN(CC(O)COc3ncnc4ccccc34)CC2)cc1` (configuration not stated) [1-(4-(4-Methoxyphenyl)piperazin-1-yl)-3-(quinazolin-4-yloxy)propan-2-ol (3i)], for which the IC50 in assay [1] is 3.42 nM; in assay [2], 122 nM; in assay [3] it was 276 nM.
For `COc1ccccc1N1CCN(CC(O)COc2ncnc3ccccc23)CC1` (configuration not stated) [1-(4-(2-Methoxyphenyl)piperazin-1-yl)-3-(quinazolin-4-yloxy)propan-2-ol (3g)], in that order: 9.98 nM, 209 nM and 357 nM.
For `OC(COc1ncnc2ccccc12)CN1CCN(c2cccc(Cl)c2Cl)CC1` (configuration not stated) [1-(4-(2,3-Dichlorophenyl)piperazin-1-yl)-3-(quinazolin-4-yloxy)propan-2-ol (3k)], in that order: 47.7 nM, 398 nM and 409 nM.
The matching figures for `OC(COc1ncnc2ccccc12)Cn1ccnc1` (configuration not stated) [1-(1H-Imidazol-1-yl)-3-(quinazolin-4-yloxy)propan-2-ol (3t)]: 84.3 nM, 609 nM and 483 nM.
As for `OC(COc1ncnc2ccccc12)CN1CCN(c2ccccc2)CC1` (configuration not stated) [1-(4-Phenylpiperazin-1-yl)-3-(quinazolin-4-yloxy)propan-2-ol (3a)], the IC50 came out at 32.6 nM in assay [1], 293 nM in assay [2] and 400 nM in assay [3].
Take `Cc1cn(CC(O)COc2ncnc3ccccc23)cn1` (configuration not stated) [1-(4-Methyl-1H-imidazol-1-yl)-3-(quinazolin-4-yloxy)propan-2-ol (3v)]: the IC50 in assay [1] was determined as 74.2 nM; in assay [2], 592 nM; in assay [3] it was 452 nM.
For `CN1CCN(CC(O)COc2ncnc3ccccc23)CC1` (configuration not stated) [1-(4-Methylpiperazin-1-yl)-3-(quinazolin-4-yloxy)propan-2-ol (3o)], in that order: 59.3 nM, 419 nM and 474 nM.
The matching figures for `Cc1nccn1CC(O)COc1ncnc2ccccc12` (configuration not stated) [1-(2-Methyl-1H-imidazol-1-yl)-3-(quinazolin-4-yloxy)propan-2-ol (3u)]: 55.7 nM, 586 nM and 444 nM.
For `OC(COc1ncnc2ccccc12)CN1CCN(c2cccc(C(F)(F)F)c2)CC1` (configuration not stated) [1-(4-(3-(Trifluoromethyl)phenyl)piperazin-1-yl)-3-(quinazolin-4-yloxy)propan-2-ol (3j)], in that order: 4.98 nM, 145 nM and 307 nM.
As for `OC(COc1ncnc2ccccc12)CN1CCCCC1` (configuration not stated) [1-(Piperidin-1-yl)-3-(quinazolin-4-yloxy)propan-2-ol (3s)], the IC50 in assay [1] amounted to 78.5 nM; in assay [2] it was 593 nM; in assay [3], 474 nM.
For `OC(COc1ncnc2ccccc12)CN1CCN(Cc2ccccc2)CC1` (configuration not stated) [1-(4-Benzylpiperazin-1-yl)-3-(quinazolin-4-yloxy)propan-2-ol (3n)], in that order: 52.2 nM, 444 nM and 435 nM.
The matching figures for `OC(COc1ncnc2ccccc12)CN1CCN(c2cccc(Cl)c2)CC1` (configuration not stated) [1-(4-(3-Chlorophenyl)piperazin-1-yl)-3-(quinazolin-4-yloxy)propan-2-ol (3c)]: 47.4 nM, 402 nM and 413 nM.
As to `COc1cccc(N2CCN(CC(O)COc3ncnc4ccccc34)CC2)c1` (configuration not stated) [1-(4-(3-Methoxyphenyl)piperazin-1-yl)-3-(quinazolin-4-yloxy)propan-2-ol (3h)], the figures for the IC50 in assay [1], in assay [2] and in assay [3] were 2.89 nM, 103 nM and 208 nM, respectively.
The matching figures for `OC(COc1ncnc2ccccc12)CN1CCOCC1` (configuration not stated) [1-Morpholino-3-(quinazolin-4-yloxy)propan-2-ol (3r)]: 81.7 nM, 602 nM and 483 nM.
For `CN(C)CC(O)COc1ncnc2ccccc12` (configuration not stated) [1-(Dimethylamino)-3-(quinazolin-4-yloxy)propan-2-ol (3q)], in that order: 63 nM, 582 nM and 455 nM.
For `Cc1ccc(N2CCN(CC(O)COc3ncnc4ccccc34)CC2)c(C)c1` (configuration not stated) [1-(4-(2,4-Dimethylphenyl)piperazin-1-yl)-3-(quinazolin-4-yloxy)propan-2-ol (3m)], in that order: 12.4 nM, 222 nM and 395 nM.
Turning to `CCN1CCN(CC(O)COc2ncnc3ccccc23)CC1` (configuration not stated) [1-(4-Ethylpiperazin-1-yl)-3-(quinazolin-4-yloxy)propan-2-ol (3p)], the IC50 stood at 54.4 nM in assay [1], 519 nM in assay [2] and 462 nM in assay [3].
